In patent US10738084B2, “Macrocycles” (Sentry Therapeutics Limited, priority 2015, dated 2020):
pIC50: −log10 of the molar value.

System: IL-2 production by Jurkat cells
Assay: Inhibition of IL-2 production by Jurkat cells after PMA/PHA co-stimulation (ELISA)
Format: cell-based, human
Settings: PMA and PHA co-stimulation; for IL-2% Inhibition: 24 hours
Procedure: Compounds of the invention were tested for their activity as inhibitors of T Cell stimulation by measuring the effect on IL-2 production by Jurkat cells following PMA (phorbol 12-myristate 13-acetate) and PHA (phytohemagglutinin) co-stimulation. All new compounds were tested at 0.1 uM, 1 uM and 10 uM. Cyclosporine A (control) was also tested at 0.1 uM, 1 uM and 10 uM. All compounds to be tested were dissolved in dimethyl sulfoxide. Cytotoxicity was evaluated with parallel Alamar Blue plates. Jurkat cells were seeded at 2×10^5 cells per well in 200 μL growth media in a clear, U-bottom 96-well plate. Cells were cultured in RPMI 1640 medium, 10% fetal bovine serum, and L-Glutamine with incubation at 37° C. with 5% carbon dioxide. After 1 hour of incubation the cells were stimulated with PMA (12.5 uL of a 1 ng/mL solution in 1% DMSO/media) and PHA (12.5 uL of a 5 ug/mL solution in PBS). After 24 hours the sample supernatants were harvested and stored at −80° C. A sample of the supernatant (25 uL) was diluted with RPMI (25 uL) and the concentration of human IL-2 was determined by ELISA (Pierce, EH2IL25).

SMILES	IL-2% Inhibition (1 uM) [%]	IL-2% Inhibition (10 uM) [%]	pIC50
CCC1CC(C)C([C@H]2C(=O)N[C@@H](CC)C(=O)N(C)CC(=O)N(C)[C@@H](CC(C)C)C(=O)N[C@@H](C(C)C)C(=O)N(C)[C@@H](CC(C)C)C(=O)N[C@@H](C)C(=O)N[C@H](C)C(=O)N(C)[C@@H](CC(C)C)C(=O)N(C)[C@@H](CC(C)C)C(=O)N(C)[C@@H](C(C)C)C(=O)N2C)O1 (stereo partly drawn) [Example A, 1-[(2S)—N-Methyl-2-[tetrahydro-5-ethyl-3-methyl-2-furanyl]glycine]-cyclosporin A]	84		
CCC1CC(C)C([C@H]2C(=O)N[C@@H](CC)C(=O)N(C)CC(=O)N(C)[C@@H](CC(C)(C)O)C(=O)N[C@@H](C(C)C)C(=O)N(C)[C@@H](CC(C)C)C(=O)N[C@@H](C)C(=O)N[C@H](C)C(=O)N(C)[C@@H](CC(C)C)C(=O)N(C)[C@@H](CC(C)C)C(=O)N(C)[C@@H](C(C)C)C(=O)N2C)O1 (stereo partly drawn) [Example C, 1-[(2S)—N-Methyl-2-[tetrahydro-5-ethyl-3-methyl-2-furanyl]glycine]-4-(4-hydroxy-N-methyl-L-leucine)-cyclosporin A]	16		
C=CC1CC(C)C(C2C(=O)NC(CC)C(=O)N(C)CC(=O)N(C)C(CC(C)(C)O)C(=O)NC(C(C)C)C(=O)N(C)C(CC(C)C)C(=O)NC(C)C(=O)NC(C)C(=O)N(C)C(CC(C)C)C(=O)N(C)C(CC(C)C)C(=O)N(C)C(C(C)C)C(=O)N2C)O1 [Example D, 1-[(2S)—N-methyl-2-[tetrahydro-5-ethenyl-3-methyl-2-furanyl]glycine]-4-(4-hydroxy-N-methyl-L-leucine)-cyclosporin A]	8		
CCC1CC(C)C([C@H]2C(=O)N[C@@H](CC)C(=O)N(C)[C@H](SCCN(C)C)C(=O)N(C)[C@@H](CC(C)(C)O)C(=O)N[C@@H](C(C)C)C(=O)N(C)[C@@H](CC(C)C)C(=O)N[C@@H](C)C(=O)N[C@H](C)C(=O)N(C)[C@@H](CC(C)C)C(=O)N(C)[C@@H](CC(C)C)C(=O)N(C)[C@@H](C(C)C)C(=O)N2C)O1 (stereo partly drawn) [Example F, 1-[(2S)—N-methyl-2-[tetrahydro-5-ethyl-3-methyl-2-furanyl]glycine]-3-[2R-[[2-(dimethylamino)ethyl]thio]-N-methylglycine]-4-(4-hydroxy-N-methyl-L-leucine)-cyclosporin A]	2	5	
C=CC1CC(C)C(C2C(=O)NC(CC)C(=O)N(C)C(SCCN(C)C)C(=O)N(C)C(CC(C)(C)O)C(=O)NC(C(C)C)C(=O)N(C)C(CC(C)C)C(=O)NC(C)C(=O)NC(C)C(=O)N(C)C(CC(C)C)C(=O)N(C)C(CC(C)C)C(=O)N(C)C(C(C)C)C(=O)N2C)O1 [Example G, 1-[(2S)—N-methyl-2-[tetrahydro-5-ethenyl-3-methyl-2-furanyl]glycine]-3-[2R-[[2-(dimethylamino)ethyl]thio]-N-methylglycine]-4-(4-hydroxy-N-methyl-L-leucine)-cyclosporin A]			< 5.00
